Tests used:
[1] = test system: A375; assay: MTT cell viability assay in A375 cells; format: cell-based; conditions: 72 h
Procedure: (§1) FIG. 2A is a graph comparison of IC50 of Uttroside B in a panel of cancer cells of different origin. The cancer cell lines HeLa, A375, HepG2, MDA-MB-231, HL 60, A549 and HCT116 were treated with Uttroside B as indicated, incubated for 72 h and the cell viability was assessed by MTT assay. FIG. 2B is a graph showing dose dependent effect of Uttroside B in the liver cancer cell lines and in normal immortalized hepatocytes. The liver cancer cell lines HepG2, Hep3B, SKHEP-1, Huh-7 and normal hepatocytes (Chang liver), were treated with Uttroside B incubated for 72 h and the cell viability was assessed by MTT assay. FIG. 2C is a graph comparison of IC50 of Uttroside B with sorafenib. HepG2 cells were treated with Uttroside B as indicated, incubated for 72 h, and the cell viability was assessed by MTT assay. […] The clones developed were counted and plotted as a graph. Colony containing more than four cells was counted as one clone. […]
(§2) MTT [3-(4,5-dimethylthiazole-2-yl)-2,5-diphenyltetrazolium bromide] assay is a standard colorimetric assay, suitable for analyzing proliferation, viability, and cytotoxicity. […] After overnight incubation, cells were treated with different concentrations of organic extracts (25-250 μg/ml) of S. nigrum and the isolated compound Uttroside B (250-1250 nM) for 72 h and cytotoxicity was measured. […]

[2] = test system: MDA-MB-231; assay: MTT cell viability assay in MDA-MB-231 cells; format: cell-based; conditions: 72 h
Procedure: as §1, §2

[3] = test system: HL60; assay: MTT cell viability assay in HL60 cells; format: cell-based; conditions: 72 h
Procedure: as §1, §2

[4] = test system: HepG2 cells; assay: Cell cycle analysis by flow cytometry (propidium iodide); format: cell-based, human; conditions: HepG2, 48 h, all concentrations studied
Procedure: FIGS. 3A-3F show Uttroside B induces caspase-dependent apoptosis leading to PARP cleavage in HepG2 cells while being independent of cell cycle. FIGS. 3A-3E are images of Western blots showing caspase activation in HepG2 cells. Whole-cell extracts were prepared after treating HepG2 cells with indicated concentrations of Uttroside B for 48 h, the whole cell lysate was resolved on a 15% gel and subjected to western blotting using antibodies against the caspases 8, 9 & 7 detected by ECL. HepG2 cells were treated with Uttroside B for 48 h at different concentrations and the whole cell lysate was resolved on a 10% gel, immunoblotted against anti-PARP and detected by ECL. […] HepG2 cells were treated with Uttroside B for 48 h, stained with propidium iodide and the cell cycle analysis was done using fluorescence activated cell sorter. Curcumin 25 μM (24 h) is used as positive control.
Flow cytometry: Cell cycle analysis helps in distinguishing the distribution of a population of cells to the different stages of the cycle. Cell cycle analysis using flow cytometry was performed to investigate the cell cycle arrest induced by Uttroside B. Cell cycle analysis is performed by quantitative measurement of nuclear DNA content in a cell by staining DNA with propidium iodide. […]

## C[C@H](CC[C@@]1(O)O[C@H]2C[C@H]3[C@@H]4CC[C@H]5C[C@@H](O[C@@H]6O[C@H](CO)[C@H](O[C@@H]7O[C@H](CO)[C@@H](O)[C@H](O[C@@H]8OC[C@@H](O)[C@H](O)[C@H]8O)[C@H]7O[C@@H]7O[C@H](CO)[C@@H](O)[C@H](O)[C@H]7O)[C@H](O)[C@H]6O)CC[C@]5(C)[C@H]4CC[C@]3(C)[C@H]2[C@@H]1C)CO[C@@H]1O[C@H](CO)[C@@H](O)[C@H](O)[C@H]1O [Uttroside B]
[1]
  IC50: 1600 nM
[2]
  IC50: 1600 nM
[3]
  IC50: 2500 nM
[4]
  effect on cell cycle: did not show any significant effect on cell cycle

— patent US11607422B2, “Uttroside B and derivatives thereof as therapeutics for hepatocellular carcinoma” (Rajiv Gandhi Centre for Biotechnology, an Autonomous …, priority 2016, dated 2023)
